From US20210322509A1, “Methods for Reducing Perinatal Morbidity and / or Mortality” (CHU SAINTE-JUSTINE, priority 2016, published 2021)
Non-standard residues stand in square brackets, D forms with d. Residues, ends and D or L forms follow the SMILES beside them. ξ: configuration not given here. dThr(3ξ) = CC(O)[C@@H](N)C(=O)O

Key:
[1] = system: IL-1β, IL-6, IL-8 and PGF2α in amniotic fluid; assay: ELISA of pro-inflammatory mediators in amniotic fluid 24 h after IL-1β injection; format: in vivo, mice; conditions: for levels of all pro-inflammatory mediators (IL-1β, IL-6, IL-8, PGF2α) in amniotic fluid: relative to vehicle
Method: FIGS. 2A to 2D show the levels of the pro-inflammatory mediators IL-1β (FIG. 2A), IL-6 (FIG. 2B), IL-8 (FIG. 2C) and PGF2a (FIG. 2D) in the amniotic fluid (AF) collected 24 h after IL-1β injection and treatment with vehicle, Compound 1 or Kineret, as assessed by ELISA. One-way ANOVA compared to IL-1β+Veh. **p<0.01, ***p<0.001. STATS: n=4; 4 gestational sacs from 2 animals in each groups.
Intrauterine […] perinatal inflammation model. Timed-pregnant CD-1 mice at 16.5 days of gestation were steadily anesthetized with an isoflurane mask. After body hair removal from the peritoneal area, a 1.5 cm-tall median incision was performed with surgical scissors in the lower abdominal wall. The lower segment of the right uterine horn was then exposed and 1 μg of IL-1β was injected between two fetal membranes with care of not entering the amniotic cavity. The abdominal muscle layer was sutured and the skin closed with clips. One hundred μL of Compound 1 (1 mg/Kg/12 h), Kineret® (4 mg/Kg/12 h) or vehicle (sterile water) was injected subcutaneously in the neck 30 minutes before stimulation with IL-1β (to allow distribution of drugs to target tissues). Mice delivery was assessed every hour until term (G19-G19.5). Immediately after delivery, neonatal survival was assessed. Some pregnant mice were sacrificed before birth (24 h after the surgery) to either 1) perform caesarean section and photograph fetuses; 2) collect amniotic fluids; and 3) collect placentas. Only tissues and fluids from gestational sacs closer to the cervical end of the uterus were collected to ensure proximity with the IL-1β injection site. Tissues and fluids were snap-frozen in liquid nitrogen and kept at −80° C. for subsequent RNA purification or protein quantification by ELISA.
Murine ELISA assays. […] The enzymatic reaction was stopped after 30 minutes and the plate was read at 450 nm, with wavelength correction set to 570 nm.

[2] = system: intestines of pups from IL-1β-treated dams; assay: Histology of ileum and colon (crypts, resident lymph nodes); format: in vivo, mice; conditions: for atrophies in intestinal crypts of the ileum: histology; for number of resident lymph nodes in the colon / size of resident lymph nodes in the colon: relative to vehicle
Method: FIG. 6A to 6D show representative histological analyses of the ileum of neonates from sham (FIG. 6A) and IL-1β-treated dams administered with vehicle (FIG. 6B), Compound 1 (FIG. 6C) or Kineret (FIG. 6D). Arrows indicate crypts. Scale, […].
FIGS. 7A and 7B show the number and size, respectively, of resident lymph nodes in the colon of neonates from sham and IL-1β-treated dams administered with vehicle, Compound 1 or Kineret. Sham (n=6 pups), IL-1β (n=3 pups), IL-1β+Compound 1 (n=6 pups), IL-1β+Kin (n=8 pups).
Histology. Intestines (from ileum to rectum) and lungs of post-term (PT) 15 mice were collected and fixed in 10% formalin during >48 h and were coated in paraffin. Samples were cut with a microtome (thickness=[…]) and mounted on lamella. Intestines were colored using hematoxylin-phloxine-saffron (HPS), whereas lungs were colored using H&E. Images were taken with a slidescanner (Axioscan®). Quantification of images was performed under blind evaluation of groups using Zen2 software.
Potential damages to the ileum and in the colon were evaluated by histologic analyses. In the ileum, pups from IL-1β-treated dams administered with vehicle had consistent atrophies in their intestinal crypts (FIG. 6B), and this was not observed following administration of compound 1 (FIG. 6C) or Kineret® (FIG. 6D). In the colon, the number of resident lymph nodes per cm, and their size, were measured. Since lymph nodes are part of the innate immunity and play an important role in the immune surveillance of the colon, the number and size of resident lymph nodes is a marker of the immune integrity/health of the intestine.

[3] = system: pregnant C57Bl/6 mice given LPS; assay: Perinatal outcomes after maternal LPS (gestation length, perinatal survival, birth weight); format: in vivo
Method: The timing of birth (FIG. 11A); the number of viable pups per litter at birth (FIG. 11B); the proportion of pups surviving to one week (FIG. 11C), and birth weight at 12-24 h (FIG. 11D) were recorded (all mean±SEM). The number of treated dams in each group is shown in parentheses (n=10 per group, with n=48-57 pups weighed per group at birth) and data were analysed by ANOVA and post-hoc Sidak t-test; *P<0.05.
Animal and treatments. […] Mice were monitored via video recording until the time of parturition. Gestation length and perinatal survival (number of live pups at birth and % pups surviving to one week) were recorded. Pups were weighed at 12-24 h after birth.

[4] = LPS gd 16.5 + compound 2 1 mg/kg i.p. at 12 h intervals, 4 doses

| Molecule | levels of all pro-inflammatory mediators (IL-1β, IL-6, IL-8, PGF2α) in amniotic fluid [1] | atrophies in intestinal crypts of the ileum [2] | number of resident lymph nodes in the colon [2] | size of resident lymph nodes in the colon [2] | LPS-induced death in the first week of life [3, 4] | LPS-induced perinatal loss (number of viable pups at birth) [3, 4] | LPS-induced prematurity (gestation length) [3, 4] | perinatal outcomes ([3]; compound 2 alone, in the absence of LPS) | pup weight at 12-24 h after birth ([3]; compound 2 with or without LPS treatment) | IL-8 levels in amniotic fluid, extent of effect ([1]; compared with compound 1) |
| --- | --- | --- | --- | --- | --- | --- | --- | --- | --- | --- |
| CC(C)C[C@@H](NC(=O)[C@@H](CCC(=O)O)NC(=O)[C@H](NC(=O)[C@H](NC(=O)[C@@H](Cc1ccc(O)cc1)NC(=O)[C@H](N)CCCNC(=N)N)C(C)O)C(C)C)C(=O)N[C@H](C)C(N)=O (stereo partly drawn) [compound 1] (H-[dR][dY][dThr(3ξ)][dV][dE][dL][dA]-NH2) | significant reduction | not observed | prevented | prevented | – | – | – | – | – | – |
| CC(C)C[C@@H](NC(=O)[C@@H](CCC(=O)O)NC(=O)[C@H](NC(=O)[C@H](NC(=O)[C@@H](Cc1ccc(O)cc1)NC(=O)[C@H](N)CCCNC(=N)N)C(C)O)C(C)C)C(=O)N[C@H](C)C(=O)O (stereo partly drawn) [compound 2] (H-[dR][dY][dThr(3ξ)][dV][dE][dL][dA]-OH) | – | – | – | – | completely reversed | completely reversed | completely reversed | did not alter perinatal outcomes | no significant effect | – |
| Kineret: recombinant form of the human interleukin-1 receptor antagonist (IL-1Ra), purchased from Swedish Orphan Biovitrum AB | only had a significant effect on IL-8 levels | not observed | not increased at statistically significant levels | significant increase | – | – | – | – | – | at a lower extent relative to compound 1 |
